According to patent US8357375B2, “Process for the preparation and use of a bivalent vaccine against morphine-heroine addiction” (Instituto Nacional de Psiquiatria Ramon de la Fuente Muniz, priority 2004, dated 2013):

Each compound was assayed on anti-morphine-heroin serum antibodies (assay: competitive immunoenzymatic ELISA for antibody specificity). Conditions: competitive antigen, nM-μM range.
Assay type: binding, rat

Compound | cross-recognition by anti-morphine-heroin serum antibodies
CN1CC[C@]23c4c5ccc(O)c4O[C@H]2[C@@H](O[C@@H]2O[C@H](C(=O)O)[C@@H](O)[C@H](O)[C@H]2O)C=C[C@H]3[C@H]1C5 [morphine-6-glucuronide] | cross-recognize
O=C1CC[C@@]2(O)[C@H]3Cc4ccc(O)c5c4[C@@]2(CCN3CC2CC2)[C@H]1O5 [naltrexone] | no cross-recognition
β-endorphin (YGGFMTSEKSQTPLVTLFKNAIIKNAYKKGE; Beta-endorphin; UniProt P01189 237-267, looked up) [endogenous opioid peptide produced in the CNS of mammals] | not able to cross-recognize
CN1CC[C@]23c4c5ccc(O[C@@H]6O[C@H](C(=O)O)[C@@H](O)[C@H](O)[C@H]6O)c4O[C@H]2[C@@H](O)C=C[C@H]3[C@H]1C5 [morphine-3-glucuronide] | cross-recognize
